“And” between values parts separate entries of the source, which are not always exact repeats. Identical values can stand only once. “Also recorded” adds a separate entry of the source. Like-named read-outs stand apart in the source and are kept apart here.
How the values were obtained:
[1] = target: T1, human dopamine-β-hydroxylase (Homo sapiens, UniProt P09172); assay: Human DBH activity, conversion of tyramine to octopamine (HPLC); assay type: biochemical; settings: for IC50: 0.1 mM tyramine, 4 mM ascorbate, pH 5.2
T1 construct: Human secretory DBH was purified from the culture medium of the neuroblastoma cell line SK-N-SH; endogenous in cells; host or cells: SK-N-SH neuroblastoma cells; secreted enzyme purified in house from the culture medium on lentil lectin-sepharose
T1 sequence (P09172 40-617 limits assumed): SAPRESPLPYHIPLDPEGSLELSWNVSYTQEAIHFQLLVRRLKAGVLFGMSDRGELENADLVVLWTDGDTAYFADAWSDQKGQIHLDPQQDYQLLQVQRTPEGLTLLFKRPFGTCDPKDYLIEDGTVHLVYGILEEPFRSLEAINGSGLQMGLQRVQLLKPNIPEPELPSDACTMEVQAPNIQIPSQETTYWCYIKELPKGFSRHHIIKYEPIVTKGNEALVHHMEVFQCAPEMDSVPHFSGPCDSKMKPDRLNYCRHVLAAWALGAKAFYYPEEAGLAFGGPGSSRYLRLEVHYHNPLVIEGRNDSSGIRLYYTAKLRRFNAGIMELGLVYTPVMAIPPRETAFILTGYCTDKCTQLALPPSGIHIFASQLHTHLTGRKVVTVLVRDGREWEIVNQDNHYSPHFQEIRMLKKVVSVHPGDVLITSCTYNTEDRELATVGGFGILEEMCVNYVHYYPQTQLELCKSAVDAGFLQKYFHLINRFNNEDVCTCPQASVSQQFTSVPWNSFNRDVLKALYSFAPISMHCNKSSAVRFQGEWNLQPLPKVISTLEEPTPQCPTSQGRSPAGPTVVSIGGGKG
Method: Bovine and human dopamine-β-hydroxylase activity was assayed by measuring the conversion of tyramine to octopamine. Bovine adrenal dopamine-β-hydroxylase was obtained from Sigma Chemicals (St Louis, Mo., USA) whereas human dopamine-β-hydroxylase was purified from the culture medium of the neuroblastoma cell line SK-N-SH. The assay was performed at pH 5.2 and 32° C. in a medium containing 0.125 M NaAc, 10 mM fumarate, 0.5-2 μM CuSO4, 0.1 mg.ml^−1 catalase, 0.1 mM tyramine and 4 mM ascorbate. In a typical assay, 0.5-1 milliunits of enzyme were added to the reaction mixture and, subsequently, a substrate mixture containing catalase, tyramine and ascorbate was added to initiate the reaction (final volume of 200 μl). Samples were incubated with or without the appropriate concentration of nepicastat (S-enantiomer) or (R)-5-Aminomethyl-1-(5,7-difluoro-1,2,3,4-tetrahydronaphth-2-yl)-2,3-dihydro-2-thioxo-1H-imidazole hydrochloride (R-enantiomer) at 37° C. for 30-40 minutes. The reaction was quenched by the stop solution containing 25 mM EDTA and 240 μM 3-hydroxytyramine (internal standard). The samples were analysed for octopamine by reverse phase high pressure liquid chromatography (HPLC) using ultraviolet-detection at […]. The HPLC chromatography run was carried out at the flow rate of 1 ml.min^−1 using a LiChroCART 125-4 RP-18 column and isocratic elution with 10 mM acidic acid, 10 mM 1-heptane sulfonic acid, 12 mM tetrabutyl ammonium phosphate and 10% methanol. The remaining percent activity was calculated based on controls, corrected using internal standards and fitted to a non-linear four-parameter concentration-response curve.
In vitro assay of DBH activity. DBH activity was assayed by measuring the conversion of tyramine to octopamine. Bovine DBH from adrenal glands was obtained from Sigma Chemical Co (St Louis, Mo.). Human secretory DBH was purified from the culture medium of the neuroblastoma cell line SK-N-SH. The assay was performed at pH 5.2 and 32° C. in 0.125 M NaOAc, 10 mM fumarate, 0.5-2 μM CUSO4, 0.1 mg/mL catalase, 0.1 mM tyramine and 4 mM ascorbate. In a typical assay, 0.5-1 milliunits of enzyme were added to the reaction mixture and then a substrate mixture containing catalase, tyramine and ascorbate was added to initiate the reaction (final volume of 200 μL). Samples were incubated with or without the appropriate concentration of the inhibitor at 37° C. for 30-40 min. The reaction was quenched by the stop solution containing 25 mM EDTA and 240 μM 3-hydroxytyramine (internal standard). The samples were analysed for octopamine by reverse phase HPLC using UV detection at […]. The remaining percent activity was calculated based on controls (without inhibitor), corrected using internal standards and fitted to a non-linear 4-parameter concentration-response curve to obtain IC50 values.
Bovine DBH from adrenal glands was obtained from Sigma Chemicals (St. Louis, Mo.). Human secretory DBH was purified from the culture medium of the neuroblastoma cell line SK-N-SH and was used to obtain the inhibition data. A lentil lectin-sepharose column containing 25 ml gel was prepared and equilibrated with 50 mM KH2PO4, pH 6.5, 0.5 M NaCl. The column was eluted with 35 ml of 10% methyl α, D-mannopyranoside in 50 mM KH2PO4, pH 6.5, 0.5 M NaCl at 0.5 ml/min. Fraction containing most enzymatic activities were pooled and concentrated with an Amicon stirred cell using a YM30 membrane. Methyl α, D-mannopyranoside was removed by buffer exchange with in 50 mM KH2PO4, pH 6.5, 0.1 M NaCl. The concentrated enzyme solution was aliquoted and stored at −25° C. An HPLC assay was used to measure DBH activity using tyramine and ascorbate as substrates. […]

pre-pulse inhibition = assay: Pre-pulse inhibition of acoustic startle on day ten of chronic dosing
Method: The effects of chronic dosing of nepicastat were examined. Between three and thirteen days prior to the first dosing day the rats were placed inside the startle apparatus and after a five minute acclimation period they were presented with a 118 dB noise burst on average once a minute (a variable inter-trial interval ranging between 30 and 90 seconds will be used) for 20 minutes. The startle responses were measured and a mean for the last twenty startle response was calculated for each rat.
Acoustic startle reactivity (a series of muscle contractions elicited by an intense burst of noise with a rapid onset), and pre-pulse inhibition (sensorimotor gating measured by analyzing any decrease in startle reactivity which occurs when a startling stimulus is immediately preceded by a non startling stimulus) were both measured in eight SR-Lab (San Diego Instruments, San Diego, Calif.) test stations. The rats were placed individually in a Plexiglas cylinder (10 cm diameter) which was housed in a ventilated sound-attenuating enclosure. Acoustic noise bursts (a broad band noise with a rise time and fall time of 1 msec) were presented via a speaker mounted 30 cm above the animal. Also, these speakers produced a 68 dB level of background noise throughout all test sessions. […] A decibel meter was used to calibrate the speakers in each of the eight test station to ±1% of the mean. Additionally, a SR-Lab calibrating instrument was used to calibrate each of the eight startle detection apparatuses to ±2% of the mean. Startle reactivity and pre-pulse inhibition tests were run concurrently immediately alter the motor activity test (about 4 hours and 40 minutes after the morning daily injection of nepicastat, and SKF-102698, and 10 minutes after a supplemental administration of clonidine and d-amphetamine on dosing day ten).

[2] = bovine and human DBH taken together

Row | Structure (SMILES) | IC50 [1] | percent prepulse inhibition vs vehicle (pre-pulse inhibition; day ten of b.i.d. oral dosing) | potency relative to SKF 102698 [1] [fold] | potency relative to the R enantiomer [1] [fold] | potency relative to SKF 102698 [1, 2] | potency relative to the R enantiomer [1, 2] | selectivity for dopamine-β-hydroxylase ([1]; vs the other enzymes studied) [fold] | percent prepulse inhibition vs vehicle (pre-pulse inhibition; rat, in vivo, po)
1 | Cl.NCc1c[nH]c(=S)n1[C@@H]1CCc2c(F)cc(F)cc2C1 [R-enantiomer, (R)-5-Aminomethyl-1-(5,7-difluoro-1,2,3,4-tetrahydronaphth-2-yl)-2,3-dihydro-2-thioxo-1H-imidazole hydrochloride] | 18.3 nM and 18 nM | – | – | – | – | – | – | –
2 | Fc1cc(F)cc(Cn2cc[nH]c2=S)c1 [SKF 102698, reference compound] | 85 ± 3.7 nM | marginally higher percent prepulse inhibition; also recorded: Neither d-amphetamine nor SKF 102698 was significantly different | – | – | – | – | – | –
3 | Cl.NCc1c[nH]c(=S)n1[C@H]1CCc2c(F)cc(F)cc2C1 [nepicastat, (S)-5-Aminomethyl-1-(5,7-difluoro-1,2,3,4-tetrahydronaphth-2-yl)-2,3-dihydro-2-thioxo-1H-imidazole hydrochloride] | 9 nM | – | 9 | 2 | 8-9 fold | 2-3 fold | > 1000 | None of the nepicastat dose groups were significantly different

— patent US20090054403A1, “Treatment of Post-Traumatic Stress Disorder” (priority 2007, published 2009)
